# Test results: a melting point compilation (Tetko et al.; mined from patent text by program, amines drawn as free bases though some values may be those of a salt)
row,melting point [°C],Structure (SMILES)
1,118 to 120,CSCC(=O)[C@H](Cc1ccccc1)NC(=O)[C@H](CC(C)C)NC(C)=O
2,195,CCc1c(Br)c2ccccn2c1C(=O)c1cc(Br)c(O)c(Br)c1
3,179 to 180,O=C(O)Cc1ccc(OCc2ccc3oc([N+](=O)[O-])c(-c4ccccc4)c3c2)cc1
4,76 to 78,CCOC(=O)C=C(C)c1ccc(-c2ccccc2)cc1
5,101 to 104,CCCCCCCN(Cc1ccc(C(C)(C)C)cc1)C(Nc1ccc(Cl)cc1)=C1C(=O)COC1=O
6,128 to 130,CCOc1nn(-c2ccc(C(F)(F)F)cn2)cc1CCOc1cccc(CC(=O)O)c1
7,150 to 153,CC(C)C1(Br)Cc2cc(OCC(=O)O)c(Cl)c(Cl)c2C1=O (centres undefined)
8,215 to 217,O=C(O)C=Cc1ccc2cc[nH]c2c1
9,43 to 44,C[Si](C)(C)CCOC(=O)c1ccc(F)cc1N
10,224 to 225,CNC(=O)c1cc(=O)c2ccccc2o1
11,174,CCOC(=O)N(Cn1cc(Cl)cnc1=O)c1ccccc1
12,130 to 131,Cc1noc2nc(-c3ccccc3)cc(Cl)c12
13,173 to 175,CCN1CCCC(NC(=O)c2ccccc2Nc2ccnc3c(Cl)cccc23)C1 (centres undefined)
14,83 to 84,CC(C)c1cc2c(cc1CSCC(=O)O)OCO2
15,152 to 154,CC(C)c1cccc(C(C)C)c1NC(=O)NOC(c1ccccc1)c1ccccc1
16,200 to 201,C#CCC1(c2ccc(Cl)cc2)Cc2cc(OCC(=O)O)c(Cl)c(Cl)c2C1=O (centres undefined)
17,138 to 139,O=C1c2cccc3cccc(c23)C(=O)N1CCCCN1CCC(O)(c2ccccc2)CC1
18,125 to 134,CNC(=O)N(O)C(C)c1ccc(F)cc1F (centres undefined)
19,194 to 196,CCCCCCCCCCCCCCCCCC(=O)c1ccc(OC)c(C(=O)O)c1
20,71,CC(=O)C(C)(C)C(Cl)C=Cc1ccccc1 (centres undefined)

row,melting point [°C],Structure (SMILES)
1,142 to 144,CCCc1nn(C)c2c(OCCOc3ccc(CC(OCC)C(=O)O)cc3)nc(C)nc12 (centres undefined)
2,100 to 101,CCCc1nn(-c2ccc(C(F)(F)F)cn2)cc1CCCOc1ccccc1CC(=O)O
3,180 to 182,C#Cc1cnc2sc(S(=O)(=O)CCCCCCC)nn2c1=O
4,132 to 133,Cc1cccc(Cn2cc(-c3cn(C4CC(O)C(CO)O4)c(=O)[nH]c3=O)nn2)c1 (centres undefined)
5,154 to 164,O=C(O)COc1coc2ccccc2c1=O
6,55 to 60,CCOC(=O)CC(=O)c1cc(C#N)ccc1F
7,110 to 112,CC(C)CCc1ccc(C#N)c(=O)[nH]1
8,161 to 163,NC(=O)Cc1ccc(Oc2ccccc2)cc1
9,101 to 102,CC(C)(C)OC(=O)N[C@@H](Cc1ccccc1)C(=O)CCl
10,118 to 120,CC(O)(CC(=O)O)c1ccc(-c2ccc(Br)cc2Br)cc1 (centres undefined)
11,158 to 160,CCN(c1nc(C)cc(C)n1)c1ccc(N(C)C(C)=O)cc1SC
12,123 to 125,CCCc1nc(C)c(C(=O)OCC)n1Cc1ccc2oc(-c3ccccc3NS(=O)(=O)C(F)(F)F)c(Br)c2c1
13,180,CNc1cc(Oc2ccc3c(c2)OCCN3C(=O)Nc2cccc(C(F)(F)F)c2)ncn1
14,53 to 56,CCOC(=O)C(=Cc1ccc(C)s1)C(=O)OCC
15,145 to 147,CCS(=O)(=O)c1cc2c(O)cccc2o1
16,229,CCOC(=O)c1ccc(COCc2csc3nc(C(=O)NCc4ccccc4)[nH]c(=O)c23)cc1
17,90 to 92,CC(C)(C)c1cc(C(=O)ON(Cc2ccccc2)Cc2ccccc2)cc(C(C)(C)C)c1O
18,71 to 76,CCCCCCCCCCCCCCCCc1cc(S)c(Sc2nnc(SCC(=O)O)s2)cc1O
19,47 to 48,CCCCC[C@@H](C(=O)O)c1cccc2c1OCO2

# More lines, now with the values behind:
row,Structure (SMILES),melting point [°C]
1,FC(F)(F)c1ccc(-c2cc(C(F)(F)F)c3ncc(I)n3n2)cc1,123 to 125
2,CC1CN(c2c(F)cc3c(=O)c(C(=O)O)cn(C4CC4)c3c2Cl)CC1N (centres undefined),231 to 234
3,O=S(=O)(c1ccc(Cl)cc1)C(c1cc(F)ccc1F)c1ccncc1Cl (centres undefined),160 to 161
4,CCc1nc2cc(OC)c(OC)cc2c(-c2ccc(OC)c(OC)c2)c1CO,192 to 193
5,Cc1cc(C)c(NC(=O)CC23CC4CC(CC(C4)C2)C3)cc1C,158
6,ClCc1ccc(OCc2coc(-c3ccccc3)n2)cc1,129 to 130
7,CC(CN1CCCC1)N1c2ccccc2Sc2ccc(C(=O)NCC3CCCC3)cc21 (racemic),124
8,COc1ccccc1N1CCN(CCn2c(=O)c3ccsc3n(C)c2=O)CC1,174 to 176
9,CNC(=O)ON=C(C)CSC(F)(F)F,56 to 58
10,O=S(=O)(c1ccccc1)n1c2cc(O)c(O)cc2c2cc(O)c(O)cc21,240 to 241
11,CC(C)(C)OC(=O)NC1(CCO)CC1,93 to 95
12,CC(C)(C)c1cc(CN(c2cccnc2)S(=O)(=O)c2ccccc2Br)cc(C(C)(C)C)c1O,105 to 107
13,Clc1ccc(C2(Cn3ccnc3)OC2c2ccc(Cl)cc2Cl)cc1 (centres undefined),102 to 103
14,O=C(Oc1ccccc1)N1C(C2=COc3ccccc3O2)=COc2cccnc21,142
15,Cc1nnc(Cl)c(-c2c(F)cc(OCCCN(C)C)cc2F)c1-c1ccc(Cl)cc1,112 to 113
16,ON=c1cc(-c2cc3cccn3cn2)oc2cccc(C(F)(F)F)c12,255 to 257
17,COC(=O)c1cc2c(nc1C(=O)OC)N(C)CC2,132 to 133
18,Nc1nc(Cl)c(-c2ccc(Cl)cc2Cl)c(Cl)n1,211 to 213
19,Cc1nc(-c2ccc(=O)n(C(C)C)n2)c(-c2ccccc2)nc1N,208 to 210
20,CN(C)CCN1C(=O)C(C)(C)SC1c1cccnc1 (centres undefined),67 to 70

row,Structure (SMILES),melting point [°C]
1,O=C1NC(=O)C2CC(SC3=CCC4C(=O)NC(=O)C4C3)=CCC12 (centres undefined),204 to 208
2,COc1ccc(CS[C@@H]2C[C@@H](COc3ccccc3)N(S(C)(=O)=O)C2)cc1,92 to 94
3,CCNc1ncnc(NCC)c1[N+](=O)[O-],80 to 81
4,C=C(C)c1cc(NC(=O)N2CCN(c3cc(OC)cc(OC)c3)CC2)c(OC)nc1C,83 to 85
5,CSc1nccn1-c1cccc(C2=Nc3cc(O)c(-c4ccccc4F)cc3NC(=O)C2)c1,> 250
6,CC(Cc1cc2ccccc2[nH]1)(NC(=O)OC1C2CC3CC(C2)CC1C3)C(=O)NCC(N)c1ccccc1 (centres undefined),96 to 102
7,COC(=O)C[C@H](O)C[C@H](O)CCc1c(-c2ccc(F)cc2)c(-c2ccccc2)c(C(=O)NCc2ccc(F)cc2)n1C(C)C,49 to 50
8,COC(=O)c1cc(C=O)c(C)nc1C1=NC(C)(C(C)C)C(=O)N1 (centres undefined),145 to 146
9,CCOC(=O)[C@@H]1CSCCCCCCCC(CSC(C)=O)C(=O)N1 (some centres undefined),193 to 196
10,CC(=O)NC12CC3(C)CC(C)(CC(O)(C3)C1)C2,194 to 195
11,O=C(NCc1ccc(Cl)cc1)c1cn(CCCN2CCCCC2)c2ccc(C#CCO)cc2c1=O,160 to 163
12,N#CC(C#N)=CN(N=C(C#N)C#N)c1ccc(Cl)c(Cl)c1,162 to 164
13,CCOC(=O)c1ncc2[nH]c3c([N+](=O)[O-])cc([N+](=O)[O-])cc3c2n1,295 to 299
14,COc1cc(Br)cc2c(Cl)cc(C)nc12,140 to 142
15,Cc1ccc(N2CN(c3ccccc3)c3[nH]ncc3C2=O)cc1,260 to 262
16,Cn1c(C(F)(F)F)cc(C#N)c1-c1ccc(Cl)c(Cl)c1,130
17,CC(C)NC(=O)c1cnc(N2CCC(n3c(=O)oc4ccccc43)CC2)c(Cl)c1,162 to 168
18,O=[N+]([O-])c1cc2nc(O)c(O)nc2c2[nH]ncc12,> 300
19,CC(C)NC(=O)c1cc(Oc2ccc3c(C(=O)Nc4cccc(C(F)(F)F)c4)cccc3c2)ncn1,205 to 208
20,Cc1cc(SC(C)C)c(NC(=O)CN2CCN(CCSc3nc4ccccc4[nH]3)CC2)c(SC(C)C)n1,186 to 188

row,Structure (SMILES),melting point [°C]
1,Cc1cccc2c(C(=O)O)c(O)c(-c3ccc(-c4ccccc4)cc3)nc12,178 to 180
2,CNc1ccc(CCc2ccc(OCc3ccccc3)c(OCc3ccccc3)c2)cc1,61 to 65
3,CC(C)(C)c1cc(-c2cncn2CCCO)cc(C(C)(C)C)c1O,166 to 167
4,Cc1nc2ccc(S(=O)(=O)n3c(COC(C)(C)C(=O)O)cc4cc(Cl)ccc43)cc2s1,172 to 174
5,COc1nc(O)c(C(=O)O)nc1Cl,170 to 173
6,CCCCCCCC/C=C\CCCCCCCC(=O)N[C@H]1CCCNC(=O)C1,66 to 67
7,Brc1ccc(-c2coc(-c3ccccn3)n2)cn1,85
8,CN(C)CCOc1c(-c2ccc(S(C)(=O)=O)cc2)cnn(-c2cccc(Cl)c2)c1=O,110 to 113
9,COc1ccc(CN(C)CCCOc2ccc(S(=O)(=O)c3c(C(C)C)cn4ccccc34)cc2)cc1OC,96 to 100
10,COc1c(C=CC(=O)c2ccc(O)cc2)ccc(O)c1C,185 to 187
11,O=C1NCc2c1c1c(c3[nH]c4ccccc4c23)Cc2ccc(Br)cc2-1,> 340
12,CCOC(=O)OCCn1nc(-c2cc(C(C)(C)C)c(O)c(C(C)(C)C)c2)c2ccc(C)nc21,145 to 146
13,CC(CN1CCN(c2ccc(F)cc2)CC1)CN1c2cccc3cccc(c23)S1(=O)=O (centres undefined),133
14,CS(=O)(=O)Nc1ccc2c(c1)CCC1(CCC(N3CCc4ccccc4C3)CC1)O2 (centres undefined),183 to 185
15,CCOc1cc(C=[N+]([O-])C(C)(C)CC(C)(C)C)ccc1OC,77.5
16,COc1cc(C=C(C#N)C(=O)NCCC(C)NC(=O)C(C#N)=Cc2cc(O)c(O)c(OC)c2)cc(O)c1O (centres undefined),> 300
17,COc1ccc(Cl)cc1-n1c(N)nnc1-c1ccc(C(F)(F)F)cc1,247 to 248
18,Cc1oc(=O)c(Nc2ccc(I)cc2)nc1Cl,203 to 205
19,O=C(Nc1cccnc1)N1CCN(c2cc(-c3ccc(F)cc3)ncn2)CC1,180 to 182
20,Cc1c(N2CCN(C)C(C)C2)c(F)cc2c(=O)c(C(=O)O)cn(C3CC3)c12 (centres undefined),181 to 183
